Patent publication US11197904B2, “Pharmaceutical compositions for preventions and managements of dementia, infectious diseases, cancers, periodontitis, dental caries, diabetes, obesity, osteoporosis and chronic pain and methods thereof” (Chung Shan Medical University, priority 2018, dated 2021)
Converted amounts (≈) assume the structure as drawn. Like-named read-outs stand apart in the source and are kept apart here. Marks after values point to notes of the source that are not given here.

How the values were obtained:
[1] = tested on: Staphylococcus aureus (S.a); experiment: microbe, parasite or virus in culture; details: read-out: IC50, 50% inhibition on bacterial proliferation, S. a.
[2] = tested on: Streptococcus mutans (S.m., UA159); experiment: microbe, parasite or virus in culture; details: read-out: IC50, 50% inhibition on bacterial proliferation, UA159
[3] = tested on: Porphyromonas gingivalis (P.g.); experiment: microbe, parasite or virus in culture; details: read-out: IC50, 50% inhibition on bacterial proliferation, P. g.
[4] = tested on: Pseudomonas aeruginosa (P.a.); experiment: microbe, parasite or virus in culture; details: read-out: IC50, 50% inhibition on bacterial proliferation, P. a.
[5] = tested on: Pseudomonas aeruginosa (P.a.)
[6] = tested on: Streptococcus mutans (S.m., UA159)
[7] = tested on: Porphyromonas gingivalis (P.g.)
[8] = tested on: Lactobacillus reuteri (L.r.); experiment: Proliferation of the probiotic Lactobacillus reuteri (OD600); format: cell-based
[9] = tested on: Staphylococcus aureus (S.a)
[10] = read-out: IC50, P. a., metals alone
[11] = read-out: IC50, UA159, metals alone
[12] = read-out: IC50, P. g., metals alone
[13] = 3 to 10 times higher than the listed IC50, Table 1
[14] = read-out: IC50, S. a., metals alone
[15] = 3 to 10 times higher IC50, Table 2
[16] = read-out: IC50 of single drug, Table 14, UA159, drug alone
[17] = read-out: IC50 of single drug, Table 14, P. g., drug alone

NNC(=O)c1ccncc1 [Isoniazid]
IC50 [1]: > 300 mg/L | IC50 [2]: > 300 mg/L | IC50 [3]: > 300 mg/L | IC50 [4]: > 300 mg/L

O=S(=O)([O-])[O-].[Zn+2] [ZnSO4]
IC50 [5, 10]: 1160 µM | IC50 [6, 11]: 961 µM | IC50 [7, 12]: 1060 µM | Inhibition on proliferation of Lactobacillus reuteri [8, 13]: ZnSO4* | IC50 [9, 14]: 939 µM

CN(C)C(=N)N=C(N)N [Metformin]
IC50 [1]: > 1000 mg/L | IC50 [2]: > 1000 mg/L | IC50 [3]: 639 mg/L (≈ 4950 µM) | IC50 [4]: > 1000 mg/L | Inhibition on proliferation of Lactobacillus reuteri [8, 15]: MF, Metformin*

COc1ccc([C@@H]2Sc3ccccc3N(CCN(C)C)C(=O)[C@@H]2OC(C)=O)cc1 [Diltiagem]
IC50, 50% inhibition on bacterial proliferation, P. a. ([5]; single agent): >300 mg/L | IC50, 50% inhibition on bacterial proliferation, UA159 ([6]; single agent): >300 mg/L | IC50, 50% inhibition on bacterial proliferation, P. g. ([7]; single agent): 104 mg/L (≈ 251 µM) | IC50, 50% inhibition on bacterial proliferation, S. a. ([9]; single agent): >300 mg/L

N.N.N.N.N.N.N.N.N.N.N.N.N.N.[Cl-].[Cl-].[Cl-].[Cl-].[Cl-].[Cl-].[O-2].[O-2].[Ru+3].[Ru+3].[Ru+4] [Ruthenium red]
IC50 [5, 10]: 32 µM | IC50 [6, 11]: 644 µM | IC50 [7, 12]: 74 µM | Inhibition on proliferation of Lactobacillus reuteri [8, 13]: RuR*, | IC50 [9, 14]: > 116 µM

N.N.[Cl][Pt][Cl] [Pt]
IC50 [6, 16]: > 100 µM | IC50 [7, 17]: 69 µM

CC12CC3CC(C)(C1)CC(N)(C3)C2 [Memantine]
IC50 [1]: 435 mg/L (≈ 2430 µM) | IC50 [2]: 386 mg/L (≈ 2150 µM) | IC50 [3]: 59 mg/L (≈ 329 µM) | IC50 [4]: 321 mg/L (≈ 1790 µM)

C[C@@H]1[C@H](O)[C@@H](C)/C=C/C=C/CC/C=C/C=C/C=C/C=C/C(O[C@H]2O[C@H](C)[C@@H](O)[C@H](N)[C@@H]2O)CC2O[C@](O)(CC(O)C(O)CCC(O)CC(O)CC(O)CC(=O)O[C@H]1C)CC(O)C2C(=O)O (some centres unmarked) [Nystatin]
IC50, 50% inhibition on bacterial proliferation, P. a. ([5]; single agent): >300 mg/L | IC50, 50% inhibition on bacterial proliferation, UA159 ([6]; single agent): >300 mg/L | IC50, 50% inhibition on bacterial proliferation, P. g. ([7]; single agent): 228 mg/L (≈ 246 µM) | IC50, 50% inhibition on bacterial proliferation, S. a. ([9]; single agent): >300 mg/L

C=C[C@H]1C[N@@]2CC[C@H]1C[C@H]2[C@H](O)c1ccnc2ccc(OC)cc12 [Quinine]
IC50 [1]: > 100 mg/L | IC50 [2]: > 100 mg/L | IC50 [3]: 43 mg/L (≈ 133 µM) | IC50 [4]: > 100 mg/L

[Cl][Ag] [AgCl]
IC50 [5, 10]: 44 µM | IC50 ([5]; read-out: IC50 of single drug, Table 14, P. a., drug alone): 42 µM | IC50 [6, 11]: 35 µM | IC50 [6, 16]: 35 µM | IC50 [7, 12]: 14 µM | IC50 [7, 17]: 14 µM | Inhibition on proliferation of Lactobacillus reuteri [8, 13]: AgCl* | IC50 [9, 14]: 28 µM | IC50 ([9]; read-out: IC50 of single drug, Table 14, S. a., drug alone): 56 µM

[Cl-].[Cl-].[Sr+2] [SrCl2]
IC50 [5, 10]: 4190 µM | IC50 [6, 11]: > 3000 µM | IC50 [7, 12]: > 3000 µM | Inhibition on proliferation of Lactobacillus reuteri [8, 13]: SrCl2* | IC50 [9, 14]: 3590 µM

Lysozyme
IC50, 50% inhibition on bacterial proliferation, P. a. ([5]; single agent): >100 mg/L | IC50, 50% inhibition on bacterial proliferation, UA159 ([6]; single agent): >100 mg/L | IC50, 50% inhibition on bacterial proliferation, P. g. ([7]; single agent): 21 mg/L | IC50, 50% inhibition on bacterial proliferation, S. a. ([9]; single agent): >100 mg/L

protamine
IC50, 50% inhibition on bacterial proliferation, P. a. ([5]; single agent): >100 mg/L | IC50, 50% inhibition on bacterial proliferation, UA159 ([6]; single agent): >100 mg/L | IC50, 50% inhibition on bacterial proliferation, P. g. ([7]; single agent): 31 mg/L | IC50, 50% inhibition on bacterial proliferation, S. a. ([9]; single agent): >100 mg/L

CCCCCCc1ccc(O)cc1O [4-Hexyl-Resorcinol]
IC50 [1]: 32 mg/L (≈ 165 µM) | IC50 [2]: 15 mg/L (≈ 77.2 µM) | IC50 [3]: 20 mg/L (≈ 103 µM) | IC50 [4]: > 100 mg/L

Phospholipase A2
IC50, 50% inhibition on bacterial proliferation, P. a. ([5]; single agent): >10 mg/L | IC50, 50% inhibition on bacterial proliferation, UA159 ([6]; single agent): >10 mg/L | IC50, 50% inhibition on bacterial proliferation, P. g. ([7]; single agent): >10 mg/L | IC50, 50% inhibition on bacterial proliferation, S. a. ([9]; single agent): >10 mg/L

COc1ccc(CCN(C)CCCC(C#N)(c2ccc(OC)c(OC)c2)C(C)C)cc1OC (centres unmarked) [Verapamil]
IC50 [1]: > 300 mg/L | IC50 [2]: > 300 mg/L | IC50 [3]: 137 mg/L (≈ 301 µM) | IC50 [4]: > 300 mg/L

[H]/N=C(/N)N[C@H]1[C@H](O)[C@@H](O)[C@H](O[C@@H]2O[C@@H](C)[C@](O)(C=O)[C@H]2O[C@@H]2O[C@@H](CO)[C@H](O)[C@@H](O)[C@@H]2NC)[C@@H](N/C(N)=N\[H])[C@@H]1O [Streptomycin]
IC50 [1]: 0.2 mg/L (≈ 0.344 µM) | IC50 [2]: 21 mg/L (≈ 36.1 µM) | IC50 [3]: 9 mg/L (≈ 15.5 µM) | IC50 [4]: 5 mg/L (≈ 8.6 µM)

N=C(N)NCCC[C@H](N)C(=O)N[C@@H](Cc1ccccc1)C(=O)O [ArgPhe]
IC50, 50% inhibition on bacterial proliferation, P. a. ([5]; P.a., 16 h): >100 mg/L | IC50, 50% inhibition on bacterial proliferation, UA159 ([6]; S.m., UA159): >100 mg/L | IC50, 50% inhibition on bacterial proliferation, P. g. [7]: >100 mg/L | IC50, 50% inhibition on bacterial proliferation, S. a. ([9]; S.a, 16 h): >100 mg/L

CSc1ccc2c(c1)N(CCC1CCCCN1C)c1ccccc1S2 (centres unmarked) [Thioridazine]
Inhibition on proliferation of Lactobacillus reuteri [8, 15]: TRZ, Thioridazine*
